Like-named read-outs stand apart in the source and are kept apart here.
Experiments:
[1] = test system: BW (BW5147) lymphoma cells; experiment: Trypan Blue cell viability, BW (BW5147); assay type: cell-based; conditions: Mus musculus, read-out: Trypan Blue Cell Viability (%)
Source text: (§1) 1) The Trypan Blue Dye Exclusion Test for monitoring ceil viability as described by Phillips, H. J., in Tissue Culture Methods and Applications; Kruse, P. F., Jr., Patterson, M. K., Eds.; Academic Press, New York, 1973, 406, and by Wu, Y. W., Chik, L. L., Knazek, R. A. Cancer Research 1989, 49, 3754. The results of this assay are expressed as a percentage of viable cells:
(§2) [% viable cells]=[no. of alive cells]/[total no. of cells]×100
(§3) where the total no. cells=dead cells+alive cells. The results are compared directly with an untreated control, which typically show a three-to-four-fold increase for cancer cells, and a two-fold increase for normal cells. Treatments resulting in [% viable cells] of <30% are considered cytotoxic. Therefore, the trypan blue dye exclusion test was used to assess the number of dead and alive cells using various cell lines upon treatment with the crude and purified agent. This test provides a simple clue to the acute or late onset of a cytotoxic response. Readings for this and all other in vitro assays were taken 48 hours after treatment with the unpurified agent, and also […] after treatment for the purified agent. Thus, the trypan blue dye exclusion assay functions to confirm whether or not the cells were viable at the time readings were taken for other bioassays.
(§4) With the preferred purified active agent in hand, ^3 H-thymidine incorporation and trypan blue assays were initially performed at different dosages using LK and BW lymphoma ceil lines in order to confirm the activity of the preferred purified active agent, and to bracket the active concentration range for the preferred purified active agent. With a molecular weight of 328, a 1 μg/mL solution corresponds to 3 μM concentration. In addition, the time course of cell viability in the trypan blue assay was also monitored in order to best optimize subsequent assays to ensure that the cells were still viable at the time of measurement, and to ensure a nontoxic response of the cells to the agent. Toxicity of the agent would have been observed as cell death within 2 hours. The trypan blue assays (Table 7), run at 30 μM and 3 μM of purified agent (10 and 1 μg/mL, respectively), indicated excellent cell viability after 24 hours, though with a significant drop in viability after 48 hours at a 30 μM dose of preferred purified active agent. Consequently the results of the in vitro assays employing purified agent were all recorded after 24 hours. In the ^3 H-thymidine incorporation assay (Table 8), dosages ranging from 0.1 to 250 μg/mL were examined.

LK lymphoma cells [2] = experiment: 3H-Thymidine Incorporation, LK; assay type: cell-based, mouse
Source text: (§5) 2) The ^3 H-Thymidine Incorporation Test as described by Ju, S. T., Dorf, M. E. J. Immunol. 1985, 134, 3722. This test was used for monitoring cellular proliferation by monitoring DNA synthesis. The results are expressed as percent ^3 H-thymidine incorporation relative to an untreated control:
(§6) [% ^3 H-thymidine incorporation]=[cpm agent treated cells]/[cpm
(§7) where cpm=counts per minute. Treatments resulting in [% ^3 H-thymidine incorporation] of <50% are considered active.
(§8) The ^3 H-thymidine incorporation assay therefore measures the amount of DNA synthesis when the cells are in the "S" phase of the cell cycle, and is used to assess cell proliferation. Cancer cells, which have a very rapid cell cycle turnover, normally incorporate large amounts of tritium (^3 H) unless inhibited by an exogenous agent. […] While the trypan blue dye exclusion test is an indicator of cell death, the ^3 H-thymidine incorporation test indicates a cytostatic status (not necessarily cytotoxic) of the cell. As previously noted, this latter test was the primary screen used to guide the isolation to the active agent.
as §4

C7 cloned T-cells = experiment: 3H-Thymidine Incorporation, C7; assay type: cell-based; conditions: Mus musculus, T-cell, read-out: 3H-Thymidine Incorporation (DNA Synthesis) Inhibition (%)
Source text: as §5, §6, §7, §8
Each of these three fractions were then tested in the trypan blue and ^3 H-thymidine incorporation assays along with the original CsA as a control, against the LS cell line, which was the most sensitive of the cancer lines (Tables 3 and 4). […] The results of the trypan blue and ^3 H-thymidine incorporation assays against the three cell lines are compiled in Tables 5a-5f.

[3] = test system: BW8767 cells (BW resistant mutant); experiment: Trypan Blue cell viability, BW8767; assay type: cell-based; conditions: Mus musculus, read-out: Trypan Blue Cell Viability (%)
Source text: as §1, §2, §3
(§9) The final in vitro assays performed with the preferred purified active agent were intended to examine the scope of the activity in the trypan blue assay against a wider range of tumor cell lines (Tables 10 and 11). These cell lines included a […] lymphoma BW8767, a BW mutant which is more resistant than the BW cell lines used in other assays, as evidenced by the results in Tables 10 and 11.

[4] = test system: CT26 colon adenocarcinoma cells; experiment: Lung metastases of CT26 in BALB/C mice, 3rd study; assay type: in vivo; conditions: day 5; 5 μg/g mouse
Experimental: The in vivo activity of the active agent was assessed against two tumor cell types injected into mice: CT26 and Ehrlich Ascites (EAT) tumor cell lines. The protocols of the "National Cancer Institute, Drug Research and Development Division of Cancer Treatment, Instruction 14, Screening Data Summary Interpretation and Outline of Current Screen" were followed.
In a subsequent experiment, mice that had been implanted with CT26 cells as above were treated on day 5 with the solid residue from the evaporation of CsA (100 μg/g mouse), and with the preferred purified active agent 11β,13-dihydrolactucin (5 μg/g mouse).

[5] = test system: CT26 cells (colon adenocarcinoma); experiment: 3H-Thymidine Incorporation, CT26; assay type: cell-based; conditions: Mus musculus, read-out: 3H-Thymidine Incorporation (DNA Synthesis) Inhibition (%)
Source text: as §5, §6, §7, §8

LK lymphoma cells [6] = experiment: 35S-Methionine Incorporation (protein synthesis), LK; assay type: cell-based; conditions: Mus musculus; for activity at 1 µg/mL: 1 μg/mL; for activity at 10 µg/mL: 10 μg/mL
Source text: (§10) 3) ^35 S-Methionine Incorporation Test as described by Sorenson, C. M., Barry, M. A., Eastman, A. J. Natl. Canc. Inst. 1990, 82, 749. The results are expressed as percent ^35 S-methionine incorporation relative to an untreated control:
(§11) [% ^35 S-methionine incorporation]=[cpm agent treated cells]/[cpm
(§12) where cpm=counts per minute. Treatments resulting in [% ^35 S-methionine incorporation] of <50% are considered active.
(§13) The ^35 S-methionine incorporation test therefore measures protein synthesis. Activity in this bioassay could arise from inhibition of transcription and/or translation.
(§14) In this test, BW and LK lymphoma cells were treated with the preferred purified active agent at 1 μg/mL and 10 μg/mL for comparison with an untreated control. The treated cells were split into two groups, one of which was thoroughly washed to remove the preferred purified active agent prior to incubation with ^35 S-methionine.

BW lymphoma cells = experiment: 35S-Methionine Incorporation (protein synthesis), BW; assay type: cell-based; conditions: Mus musculus; for activity at 1 µg/mL: 1 μg/mL; for activity at 10 µg/mL: 10 μg/mL
Source text: as §10, §11, §12, §13, §14

[7] = test system: BW8767 cells (BW resistant mutant); experiment: 3H-Thymidine Incorporation, BW8767; assay type: cell-based; conditions: Mus musculus, read-out: 3H-Thymidine Incorporation (DNA Synthesis) Inhibition (%)
Source text: as §5, §6, §7, §8, §9

`CC1=C2C(=O)C=C(CO)[C@@H]2[C@H]2OC(=O)[C@@H](C)[C@@H]2[C@@H](O)C1` [11β,13-dihydrolactucin, 3,6-dimethyl-4-hydroxy-9-hydroxymethyl-3,3a,4,5,9a,9b-hexahydroazuleno[4,5-b]furan-2,7-dione] showed a viability at 1 µg/mL ([1]; 2 h) of 100%, a viability at 10 µg/mL ([1]; 2 h) of 100% and a viability at 1 µg/mL ([1]; 5 h) of 100%. The viability at 10 µg/mL ([1]; 5 h) was 100%, the viability at 1 µg/mL ([1]; 12 h) was 100% and the viability at 10 µg/mL ([1]; 12 h) was 100%. The viability at 1 µg/mL ([1]; 24 h) was 100%, the viability at 10 µg/mL ([1]; 24 h) was 85% and the viability at 1 µg/mL ([1]; 36 h) was 90%. For the same compound, the viability at 10 µg/mL ([1]; 36 h) was 72%, the viability at 1 µg/mL ([1]; 48 h) was 90% and the viability at 10 µg/mL ([1]; 48 h) was 60%. For the same compound, the viability at 0.1 µg/mL [1] was 100%, the viability at 0.5 µg/mL [1] was 100% and the viability at 1 µg/mL [1] was 100%. For the same compound, the viability at 10 µg/mL [1] was 80%, the “ED50, 3H-thymidine incorporation” value (LK lymphoma cells [2]) was “micromolar range” and the inhibition at 0.1 µg/mL (LK lymphoma cells [2]; Mus musculus, 3 h, 0.1 μg/mL, read-out: 3H-Thymidine Incorporation (DNA Synthesis) Inhibition (%)) was 95%. It also gave an inhibition at 1 µg/mL (LK lymphoma cells [2]; Mus musculus, 3 h, 1 μg/mL, read-out: 3H-Thymidine Incorporation (DNA Synthesis) Inhibition (%)) of 75%, an inhibition at 10 µg/mL (LK lymphoma cells [2]; Mus musculus, 3 h, 10 μg/mL, read-out: 3H-Thymidine Incorporation (DNA Synthesis) Inhibition (%)) of 5% and an inhibition at 25 µg/mL (LK lymphoma cells [2]; Mus musculus, 3 h, 25 μg/mL, read-out: 3H-Thymidine Incorporation (DNA Synthesis) Inhibition (%)) of 2%. The inhibition at 100 µg/mL (LK lymphoma cells [2]; Mus musculus, 3 h, 100 μg/mL, read-out: 3H-Thymidine Incorporation (DNA Synthesis) Inhibition (%)) was 2%, the inhibition at 250 µg/mL (LK lymphoma cells [2]; Mus musculus, 3 h, 250 μg/mL, read-out: 3H-Thymidine Incorporation (DNA Synthesis) Inhibition (%)) was 2% and the inhibition at 0.1 µg/mL (C7 cloned T-cells; 0.1 μg/mL) was 100%. It also gave an inhibition at 0.5 µg/mL (C7 cloned T-cells; 0.5 μg/mL) of 100%, an inhibition at 1 µg/mL (C7 cloned T-cells; 1.0 μg/mL) of 100% and an inhibition at 10 µg/mL (C7 cloned T-cells; 10 μg/mL) of 75%. It also gave a viability at 0.1 µg/mL [3] of 100%, a viability at 0.5 µg/mL [3] of 100% and a viability at 1 µg/mL [3] of 100%. For the same compound, the viability at 10 µg/mL [3] was 100%, the “Number of Metastases (mean ± S.D.)” value [4] was 0.33 ± 0.33 and the inhibition at 0.1 µg/mL ([5]; 0.1 μg/mL) was 100%. For the same compound, the inhibition at 0.5 µg/mL ([5]; 0.5 μg/mL) was 50%, the inhibition at 1 µg/mL ([5]; 1.0 μg/mL) was 5% and the inhibition at 10 µg/mL ([5]; 10 μg/mL) was 1%. It also gave an activity at 1 µg/mL (LK lymphoma cells [6]; LK (washed)) of 100%, an activity at 10 µg/mL (LK lymphoma cells [6]; LK (washed)) of 100% and an activity at 1 µg/mL (LK lymphoma cells [6]; LK, unwashed) of 50%. For the same compound, the activity at 10 µg/mL (LK lymphoma cells [6]; LK, unwashed) was 10%, the activity at 1 µg/mL (BW lymphoma cells; BW (washed)) was 100% and the activity at 10 µg/mL (BW lymphoma cells; BW (washed)) was 100%. It also gave an activity at 1 µg/mL (BW lymphoma cells; BW, unwashed) of 10%, an activity at 10 µg/mL (BW lymphoma cells; BW, unwashed) of 2% and an inhibition at 0.1 µg/mL ([7]; 0.1 μg/mL) of 100%. It also gave an inhibition at 0.5 µg/mL ([7]; 0.5 μg/mL) of 100%.

— US5663196A, “Methods for treating neoplastic disorders” (Boston University, priority 1993, dated 1997)
